In ChEMBL document CHEMBL5338713, “Discovery of pomalidomide-based PROTACs for selective degradation of histone deacetylase 8” (Eur J Med Chem, 2022):
Activity calls are given as the source filed them. The rule behind the calls is not given here.

Each molecule was assayed against Protein cereblon/Histone deacetylase 8 (Homo sapiens) (UniProt Q9BY41+Q96SW2) (assay: PROTAC activity at HDAC8/CRBN in human HCT-116 cells assessed as degradation of HDAC8 at 5 uM by Western blot analysis). Settings: not given.
Protein cereblon/Histone deacetylase 8 (Homo sapiens), sequence (Q96SW2 whole entry, looked up, one chain of several): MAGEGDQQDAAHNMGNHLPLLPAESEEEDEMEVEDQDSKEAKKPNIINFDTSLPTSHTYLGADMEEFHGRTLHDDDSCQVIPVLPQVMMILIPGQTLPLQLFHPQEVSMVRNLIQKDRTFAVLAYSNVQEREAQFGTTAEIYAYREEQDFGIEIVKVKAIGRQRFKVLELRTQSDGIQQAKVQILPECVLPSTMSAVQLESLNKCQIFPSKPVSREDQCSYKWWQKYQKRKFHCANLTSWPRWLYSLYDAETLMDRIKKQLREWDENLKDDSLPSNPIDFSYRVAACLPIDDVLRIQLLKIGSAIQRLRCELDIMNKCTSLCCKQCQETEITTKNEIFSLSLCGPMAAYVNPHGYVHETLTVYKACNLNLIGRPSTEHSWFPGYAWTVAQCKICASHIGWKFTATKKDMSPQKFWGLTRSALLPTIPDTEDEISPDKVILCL
Assay type: cell-based

Which Activity does the source give for `O=C(CCCCOc1ccc(CCNC(=O)c2cccc(C(=O)NOC3CCCCO3)c2)cc1)NCCCCCCNc1cccc2c1C(=O)N(C1CCC(=O)NC1=O)C2=O` (configuration not stated) here?
Its Activity is “inactive”.

How did the Activity turn out when `CN1C(=O)CCC(N2C(=O)c3cccc(NCCCCCCNC(=O)CCCCOc4ccc(CCNC(=O)c5cccc(C(=O)NO)c5)cc4)c3C2=O)C1=O` (configuration not stated) was run?
Its Activity is “inactive”.

What follows are molecules tested against T1, Histone deacetylase 8 (Homo sapiens) (UniProt Q9BY41) (assay: Induction of HDAC8 degradation in human HCT-116 cells assessed as maximum degradation at 0.1 to 160 uM measured after 10 hrs by Western blot analysis relative to control). Settings: dose 0.1-160 µM.
T1 sequence (whole entry): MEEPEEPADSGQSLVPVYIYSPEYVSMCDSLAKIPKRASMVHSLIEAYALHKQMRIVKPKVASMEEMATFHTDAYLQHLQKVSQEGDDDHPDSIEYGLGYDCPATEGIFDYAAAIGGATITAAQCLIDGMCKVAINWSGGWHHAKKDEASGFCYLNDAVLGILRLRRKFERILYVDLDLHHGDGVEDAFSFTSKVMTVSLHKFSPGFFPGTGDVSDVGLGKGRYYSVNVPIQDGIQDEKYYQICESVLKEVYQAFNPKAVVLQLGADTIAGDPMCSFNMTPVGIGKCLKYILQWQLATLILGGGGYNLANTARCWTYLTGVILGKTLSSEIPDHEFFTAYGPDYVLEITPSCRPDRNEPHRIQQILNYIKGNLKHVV
Assay type: cell-based

Which Emax does the source give for `O=C(CCCCOc1ccc(CCNC(=O)c2cccc(C(=O)NO)c2)cc1)NCCCCCCNc1ccc2c(c1)C(=O)N(C1CCC(=O)NC1=O)C2=O` (configuration not stated) here?
Its Emax is 77%.

Which Emax does the source give for `O=C1CCC(N2C(=O)c3cccc(N4CCC(N5CCN(C(=O)CCCCOc6ccc(CCNC(=O)c7cccc(C(=O)NO)c7)cc6)CC5)CC4)c3C2=O)C(=O)N1` (configuration not stated) here?
The Emax was 91%.

These molecules were tested against T2, Histone deacetylase 8 (Homo sapiens, UniProt Q9BY41) (assay: Induction of HDAC8 degradation in human HCT-116 cells measured after 10 hrs by Western blot analysis). Settings: not given.
T2 sequence (Q9BY41 whole entry): T1 sequence (whole entry)
Assay type: cell-based

Which DC50 does the source give for `O=C(CCCCOc1ccc(CCNC(=O)c2cccc(C(=O)NO)c2)cc1)NCCCCCCNc1ccc2c(c1)C(=O)N(C1CCC(=O)NC1=O)C2=O` (configuration not stated) here?
Its DC50 is 441 nM.

Which DC50 does the source give for `O=C1CCC(N2C(=O)c3cccc(N4CCC(N5CCN(C(=O)CCCCOc6ccc(CCNC(=O)c7cccc(C(=O)NO)c7)cc6)CC5)CC4)c3C2=O)C(=O)N1` (configuration not stated) here?
The DC50 was 876 nM.

These molecules were tested against T1, Histone deacetylase 8 (Homo sapiens) (assay: Induction of HDAC8 degradation in human HCT-116 cells at 5 uM by Western blot analysis relative to control). Settings: not given.
Assay type: cell-based

Which Activity does the source give for `O=C(CCCCOc1ccc(CCNC(=O)c2cccc(C(=O)NO)c2)cc1)NCCCCNc1cccc2c1C(=O)N(C1CCC(=O)NC1=O)C2=O` (configuration not stated) here?
Its Activity is 53%.

How did the Activity turn out when `O=C(CCCOc1ccc(CCNC(=O)c2cccc(C(=O)NO)c2)cc1)NCCCCCCNc1cccc2c1C(=O)N(C1CCC(=O)NC1=O)C2=O` (configuration not stated) was run?
The Activity was 49.6%.

How did the Activity turn out when `O=C(NO)c1cccc(C(=O)NCCc2ccccc2)c1` was run?
Its Activity is -22%.

For `O=C(CCCCOc1ccc(CCNC(=O)c2cccc(C(=O)NO)c2)cc1)NCCCCCCNc1ccc2c(c1)C(=O)N(C1CCC(=O)NC1=O)C2=O` (configuration not stated), which Activity is on record?
The Activity was 68.9%.

For `O=C(CCCOc1ccc(CCNC(=O)c2cccc(C(=O)NO)c2)cc1)NCCCNc1cccc2c1C(=O)N(C1CCC(=O)NC1=O)C2=O` (configuration not stated), which Activity is on record?
The Activity was 21.2%.

For `O=C(CCCOc1ccc(CCNC(=O)c2cccc(C(=O)NO)c2)cc1)NCCCCCNc1cccc2c1C(=O)N(C1CCC(=O)NC1=O)C2=O` (configuration not stated), which Activity is on record?
The Activity was 33.4%.

For `O=C(CCCCOc1ccc(CCNC(=O)c2cccc(C(=O)NO)c2)cc1)NCCNc1cccc2c1C(=O)N(C1CCC(=O)NC1=O)C2=O` (configuration not stated), which Activity is on record?
Its Activity is 52.5%.

Which Activity does the source give for `O=C(CCCCCOc1ccc(CCNC(=O)c2cccc(C(=O)NO)c2)cc1)NCCCNc1cccc2c1C(=O)N(C1CCC(=O)NC1=O)C2=O` (configuration not stated) here?
The Activity was 16.9%.

How did the Activity turn out when `O=C1CCC(N2C(=O)c3cccc(N4CCN(CC5CN(C(=O)CCCCOc6ccc(CCNC(=O)c7cccc(C(=O)NO)c7)cc6)C5)CC4)c3C2=O)C(=O)N1` (configuration not stated) was run?
Its Activity is 6.54%.

For `O=C(COc1ccc(CCNC(=O)c2cccc(C(=O)NO)c2)cc1)NCCNc1cccc2c1C(=O)N(C1CCC(=O)NC1=O)C2=O` (configuration not stated), which Activity is on record?
The Activity was 25.8%.

Which Activity does the source give for `O=C1CCC(N2C(=O)c3cccc(N4CCN(C5CN(C(=O)CCCCOc6ccc(CCNC(=O)c7cccc(C(=O)NO)c7)cc6)C5)CC4)c3C2=O)C(=O)N1` (configuration not stated) here?
The Activity was 39.5%.

`O=C1CCC(N2C(=O)c3cccc(N4CCN(C(=O)CCCCOc5ccc(CCNC(=O)c6cccc(C(=O)NO)c6)cc5)CC4)c3C2=O)C(=O)N1` (configuration not stated) was tested. Which Activity did it give?
Its Activity is 57.9%.

With `O=C(CCCCCOc1ccc(CCNC(=O)c2cccc(C(=O)NO)c2)cc1)NCCCCCNc1cccc2c1C(=O)N(C1CCC(=O)NC1=O)C2=O` (configuration not stated) as the molecule, how does the Activity read?
Its Activity is 51.7%.

How did the Activity turn out when `O=C(CCCCCOc1ccc(CCNC(=O)c2cccc(C(=O)NO)c2)cc1)NCCCCCCNc1cccc2c1C(=O)N(C1CCC(=O)NC1=O)C2=O` (configuration not stated) was run?
Its Activity is 45.2%.

With `O=C(COc1ccc(CCNC(=O)c2cccc(C(=O)NO)c2)cc1)NCCCCNc1cccc2c1C(=O)N(C1CCC(=O)NC1=O)C2=O` (configuration not stated) as the molecule, how does the Activity read?
Its Activity is 43.6%.

With `O=C1CCC(N2C(=O)c3cccc(N4CCN(C5CCN(C(=O)CCCCOc6ccc(CCNC(=O)c7cccc(C(=O)NO)c7)cc6)CC5)CC4)c3C2=O)C(=O)N1` (configuration not stated) as the molecule, how does the Activity read?
The Activity was 43.2%.

`O=C(CCCCCCOc1ccc(CCNC(=O)c2cccc(C(=O)NO)c2)cc1)NCCCCNc1cccc2c1C(=O)N(C1CCC(=O)NC1=O)C2=O` (configuration not stated) was tested. Which Activity did it give?
Its Activity is 19.8%.

With `O=C(CCCCOc1ccc(CCNC(=O)c2cccc(C(=O)NO)c2)cc1)NCCCNc1cccc2c1C(=O)N(C1CCC(=O)NC1=O)C2=O` (configuration not stated) as the molecule, how does the Activity read?
Its Activity is 25.8%.

`O=C1CCC(N2C(=O)c3cccc(N4CCC(N5CCN(C(=O)CCCCOc6ccc(CCNC(=O)c7cccc(C(=O)NO)c7)cc6)CC5)CC4)c3C2=O)C(=O)N1` (configuration not stated) was tested. Which Activity did it give?
Its Activity is 74.4%.

With `O=C(COc1ccc(CCNC(=O)c2cccc(C(=O)NO)c2)cc1)NCCCCCNc1cccc2c1C(=O)N(C1CCC(=O)NC1=O)C2=O` (configuration not stated) as the molecule, how does the Activity read?
Its Activity is 10.7%.

With `O=C(CCCCCOc1ccc(CCNC(=O)c2cccc(C(=O)NO)c2)cc1)NCCCCNc1cccc2c1C(=O)N(C1CCC(=O)NC1=O)C2=O` (configuration not stated) as the molecule, how does the Activity read?
Its Activity is 24.4%.

How did the Activity turn out when `Nc1cccc2c1C(=O)N(C1CCC(=O)NC1=O)C2=O` (configuration not stated) was run?
Its Activity is -11%.

How did the Activity turn out when `O=C(COc1ccc(CCNC(=O)c2cccc(C(=O)NO)c2)cc1)NCCCNc1cccc2c1C(=O)N(C1CCC(=O)NC1=O)C2=O` (configuration not stated) was run?
The Activity was 32%.

With `O=C1CCC(N2C(=O)c3cccc(N4CC(CN5CCN(C(=O)CCCCOc6ccc(CCNC(=O)c7cccc(C(=O)NO)c7)cc6)CC5)C4)c3C2=O)C(=O)N1` (configuration not stated) as the molecule, how does the Activity read?
Its Activity is 56.3%.

How did the Activity turn out when `O=C(CCCCCCOc1ccc(CCNC(=O)c2cccc(C(=O)NO)c2)cc1)NCCNc1cccc2c1C(=O)N(C1CCC(=O)NC1=O)C2=O` (configuration not stated) was run?
Its Activity is 65.2%.

`O=C1CCC(N2C(=O)c3cccc(N4CCC(CN5CCN(C(=O)CCCCOc6ccc(CCNC(=O)c7cccc(C(=O)NO)c7)cc6)CC5)CC4)c3C2=O)C(=O)N1` (configuration not stated) was tested. Which Activity did it give?
Its Activity is 48.3%.

With `O=C(CCCCCCOc1ccc(CCNC(=O)c2cccc(C(=O)NO)c2)cc1)NCCCCCCNc1cccc2c1C(=O)N(C1CCC(=O)NC1=O)C2=O` (configuration not stated) as the molecule, how does the Activity read?
Its Activity is 25.6%.

How did the Activity turn out when `O=C(CCCCCOc1ccc(CCNC(=O)c2cccc(C(=O)NO)c2)cc1)NCCNc1cccc2c1C(=O)N(C1CCC(=O)NC1=O)C2=O` (configuration not stated) was run?
The Activity was 72.9%.

For `O=C(CCCCCCOc1ccc(CCNC(=O)c2cccc(C(=O)NO)c2)cc1)NCCCCCNc1cccc2c1C(=O)N(C1CCC(=O)NC1=O)C2=O` (configuration not stated), which Activity is on record?
Its Activity is 23.7%.

Which Activity does the source give for `O=C(CCCOc1ccc(CCNC(=O)c2cccc(C(=O)NO)c2)cc1)NCCNc1cccc2c1C(=O)N(C1CCC(=O)NC1=O)C2=O` (configuration not stated) here?
The Activity was 44.3%.

For `O=C1CCC(N2C(=O)c3cccc(N4CC(N5CCN(C(=O)CCCCOc6ccc(CCNC(=O)c7cccc(C(=O)NO)c7)cc6)CC5)C4)c3C2=O)C(=O)N1` (configuration not stated), which Activity is on record?
Its Activity is 59.6%.

With `O=C(CCCCOc1ccc(CCNC(=O)c2cccc(C(=O)NO)c2)cc1)NCCCCCNc1cccc2c1C(=O)N(C1CCC(=O)NC1=O)C2=O` (configuration not stated) as the molecule, how does the Activity read?
Its Activity is 72.9%.

Which Activity does the source give for `O=C(COc1ccc(CCNC(=O)c2cccc(C(=O)NO)c2)cc1)NCCCCCCNc1cccc2c1C(=O)N(C1CCC(=O)NC1=O)C2=O` (configuration not stated) here?
The Activity was 54.5%.

`O=C1CCC(N2C(=O)c3cccc(N4CCN(CC5CCN(C(=O)CCCCOc6ccc(CCNC(=O)c7cccc(C(=O)NO)c7)cc6)CC5)CC4)c3C2=O)C(=O)N1` (configuration not stated) was tested. Which Activity did it give?
The Activity was 43.6%.

For `O=C(CCCCCCOc1ccc(CCNC(=O)c2cccc(C(=O)NO)c2)cc1)NCCCNc1cccc2c1C(=O)N(C1CCC(=O)NC1=O)C2=O` (configuration not stated), which Activity is on record?
The Activity was 30.5%.

For `O=C(CCCOc1ccc(CCNC(=O)c2cccc(C(=O)NO)c2)cc1)NCCCCNc1cccc2c1C(=O)N(C1CCC(=O)NC1=O)C2=O` (configuration not stated), which Activity is on record?
The Activity was 20.8%.
